US11427581B2, “JAK inhibitor and use thereof” (ZHUHAI UNITED LABORATORIES CO., LTD., priority 2018, dated 2022)
Read-outs that look alike come from different tables or passages of the source.

Assays:
JAK1 (h) = JAK1 (h) (Homo sapiens (Human), UniProt P23458); experiment: In vitro activity assay of JAK1 kinase (radiometric 33P-ATP, Eurofins); type: biochemical; conditions: recombinant human JAK1
JAK2 (h) = JAK2 (h) (Homo sapiens (Human), UniProt O60674); experiment: In vitro activity assay of JAK2 kinase (radiometric 33P-ATP, Eurofins); type: biochemical; conditions: recombinant human JAK2
JAK3 (h) = JAK3 (h) (Homo sapiens (Human), UniProt P52333); experiment: In vitro activity assay of JAK3 kinase (radiometric 33P-ATP, Eurofins); type: biochemical; conditions: recombinant human JAK3
Experimental: (§1) Recombinant human-derived JAK1, JAK2, JAK3, Tyk2 protease, main instruments and reagents were provided by Eurofins in the UK
(§2) JAK2, JAK3 and TYK2 dilution: 20 mM MOPS, 1 mM EDTA, 0.01% Brij-35.5% glycerol, 0.1% β-mercaptoethanol. 1 mg/mL BSA; JAK1 dilution: 20 mM TRIS, 0.2 mM EDTA, 0.1% β-mercaptoethanol, 0.01% Brij-35.5% glycerol. All compounds were prepared as 100% DMSO solutions, and the concentration of the compound reached 50 times the final measured concentration. The test compound was diluted with a 3-fold concentration gradient, the final concentration was 10 μM to 0.001 μM in total 9 concentrations, and the content of DMSO in the detection reaction was 2%. The working stock solution of the compound was added to the wells as the first component of the reaction, and then the remaining components were added according to the protocol detailed below.
(§3) JAK3 (h) was incubated with 8 mM MOPS pH 7.0, 0.2 mM EDTA, 500 μM […], 10 mM magnesium acetate and [γ-^33P]-ATP (activity and concentration were formulated as needed). Mg/ATP mixture was added to initiate the reaction. After incubating at room temperature for 40 minutes, the reaction mixture was added with 0.5% phosphoric acid to stop the reaction. Then 10 μL the reaction solution was spotted on a P30 filter pad and washed with 0.425% phosphoric acid three times and methanol once over 4 minutes, dried, and counted scintillation.
(§4) The IC50 results were analyzed by XLFIT5 (205 formula) of IDBS Company, see Table 1 for details.

TYK2 (h) = TYK2 (h) (Homo sapiens (Human), UniProt P29597); experiment: In vitro activity assay of TYK2 kinase (radiometric 33P-ATP, Eurofins); type: biochemical; conditions: recombinant human TYK2
Experimental: as §1, §2
as §3, with “TYK2” for “JAK3”, “250” for “500”, “μL” for “μL the”, “reaction” for “reaction solution”
as §4

[1] = tested on: adjuvant-induced arthritis rat model; experiment: In vivo drug efficacy study in an adjuvant-induced arthritis model (AIA); conditions: for average foot volume of arthritis rat: vehicle 2.8 mL
[2] = Pharmacokinetic (PK) assay in rat; type: in vivo; conditions: male SD rat; for Bioavailability: gavage vs tail vein; for Cmax: read-out: Cmax (peak concentration)
Experimental: The clear solution obtained by dissolving the test compound was injected into male mice (C57BL/6) or rats (SD) by tail vein and gavage respectively (overnight fasting, 7-8 weeks old). […] The drug concentration on blood was determined by LC-MS/MS, the related pharmacokinetic parameters were calculated by the linear logarithm trapezoid method of non atrioventricular model by WinNonlin™ Version 6.3.

[3] = 15 mg/kg p.o. bid 14 d, end of the experiment (27th day)
[4] = 15 mpk p.o. bid 14 d, end of the experiment (27th day), vehicle peak about 8.5
[5] = tail vein and gavage groups, route of the parameter and dose not given

Sequence of JAK3 (h) (P52333 whole entry): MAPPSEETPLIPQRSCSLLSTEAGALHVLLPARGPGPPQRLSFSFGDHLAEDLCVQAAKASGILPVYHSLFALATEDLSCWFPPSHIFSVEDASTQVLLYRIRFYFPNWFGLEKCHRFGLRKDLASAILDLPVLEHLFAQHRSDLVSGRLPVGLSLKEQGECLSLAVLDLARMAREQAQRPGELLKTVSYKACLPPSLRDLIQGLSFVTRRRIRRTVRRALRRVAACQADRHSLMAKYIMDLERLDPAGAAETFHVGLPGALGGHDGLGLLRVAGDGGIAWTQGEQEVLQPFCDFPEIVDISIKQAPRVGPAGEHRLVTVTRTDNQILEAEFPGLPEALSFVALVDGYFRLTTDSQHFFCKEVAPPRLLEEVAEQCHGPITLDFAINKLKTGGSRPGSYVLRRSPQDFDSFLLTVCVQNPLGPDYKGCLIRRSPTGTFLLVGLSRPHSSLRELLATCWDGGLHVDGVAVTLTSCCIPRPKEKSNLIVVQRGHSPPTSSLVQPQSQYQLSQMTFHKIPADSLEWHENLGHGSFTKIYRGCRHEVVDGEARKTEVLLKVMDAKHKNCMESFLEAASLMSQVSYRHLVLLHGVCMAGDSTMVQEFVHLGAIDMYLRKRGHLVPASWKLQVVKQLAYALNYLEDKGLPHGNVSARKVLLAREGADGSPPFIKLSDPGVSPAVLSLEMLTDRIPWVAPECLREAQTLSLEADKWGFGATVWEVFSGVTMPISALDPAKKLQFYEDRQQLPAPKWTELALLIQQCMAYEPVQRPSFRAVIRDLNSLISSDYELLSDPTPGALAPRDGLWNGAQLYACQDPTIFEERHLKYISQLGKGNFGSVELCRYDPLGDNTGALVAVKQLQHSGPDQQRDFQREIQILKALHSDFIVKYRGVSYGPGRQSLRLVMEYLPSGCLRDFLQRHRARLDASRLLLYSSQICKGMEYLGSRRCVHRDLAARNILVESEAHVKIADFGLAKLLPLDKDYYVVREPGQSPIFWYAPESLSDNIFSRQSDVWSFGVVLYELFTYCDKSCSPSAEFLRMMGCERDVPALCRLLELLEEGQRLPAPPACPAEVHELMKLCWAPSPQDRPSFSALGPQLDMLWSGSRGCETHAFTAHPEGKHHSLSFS
Sequence of JAK2 (h) (O60674 whole entry): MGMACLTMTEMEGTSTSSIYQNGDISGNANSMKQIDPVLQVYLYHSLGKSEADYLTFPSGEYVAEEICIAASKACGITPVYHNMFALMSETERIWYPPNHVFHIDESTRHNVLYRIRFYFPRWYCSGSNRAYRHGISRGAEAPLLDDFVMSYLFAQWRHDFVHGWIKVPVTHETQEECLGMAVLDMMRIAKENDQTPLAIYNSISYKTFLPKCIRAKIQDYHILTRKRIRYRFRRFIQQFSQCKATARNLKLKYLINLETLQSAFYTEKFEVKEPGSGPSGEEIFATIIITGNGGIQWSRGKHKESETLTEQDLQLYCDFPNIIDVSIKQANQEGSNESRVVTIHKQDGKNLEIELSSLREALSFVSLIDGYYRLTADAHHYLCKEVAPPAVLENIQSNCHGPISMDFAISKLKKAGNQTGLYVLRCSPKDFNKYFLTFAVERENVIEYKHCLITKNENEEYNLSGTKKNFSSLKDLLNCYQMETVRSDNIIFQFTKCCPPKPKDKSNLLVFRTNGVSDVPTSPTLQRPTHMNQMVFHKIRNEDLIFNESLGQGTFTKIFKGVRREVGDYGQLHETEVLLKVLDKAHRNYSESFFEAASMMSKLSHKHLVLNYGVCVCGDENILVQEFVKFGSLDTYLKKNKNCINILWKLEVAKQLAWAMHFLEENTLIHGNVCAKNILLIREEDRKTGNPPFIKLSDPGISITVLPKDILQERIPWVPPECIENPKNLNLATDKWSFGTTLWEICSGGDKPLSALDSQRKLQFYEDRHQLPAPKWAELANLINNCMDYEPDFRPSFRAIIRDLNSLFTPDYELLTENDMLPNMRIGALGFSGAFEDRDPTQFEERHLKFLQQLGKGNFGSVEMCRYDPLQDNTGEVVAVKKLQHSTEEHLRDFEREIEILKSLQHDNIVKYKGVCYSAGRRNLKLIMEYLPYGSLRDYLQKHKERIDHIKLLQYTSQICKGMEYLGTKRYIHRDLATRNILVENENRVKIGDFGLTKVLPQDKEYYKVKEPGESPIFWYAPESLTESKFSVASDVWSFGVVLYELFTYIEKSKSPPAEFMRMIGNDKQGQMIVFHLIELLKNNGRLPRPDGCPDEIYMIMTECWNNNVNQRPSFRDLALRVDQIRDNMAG
Sequence of JAK1 (h) (P23458 whole entry): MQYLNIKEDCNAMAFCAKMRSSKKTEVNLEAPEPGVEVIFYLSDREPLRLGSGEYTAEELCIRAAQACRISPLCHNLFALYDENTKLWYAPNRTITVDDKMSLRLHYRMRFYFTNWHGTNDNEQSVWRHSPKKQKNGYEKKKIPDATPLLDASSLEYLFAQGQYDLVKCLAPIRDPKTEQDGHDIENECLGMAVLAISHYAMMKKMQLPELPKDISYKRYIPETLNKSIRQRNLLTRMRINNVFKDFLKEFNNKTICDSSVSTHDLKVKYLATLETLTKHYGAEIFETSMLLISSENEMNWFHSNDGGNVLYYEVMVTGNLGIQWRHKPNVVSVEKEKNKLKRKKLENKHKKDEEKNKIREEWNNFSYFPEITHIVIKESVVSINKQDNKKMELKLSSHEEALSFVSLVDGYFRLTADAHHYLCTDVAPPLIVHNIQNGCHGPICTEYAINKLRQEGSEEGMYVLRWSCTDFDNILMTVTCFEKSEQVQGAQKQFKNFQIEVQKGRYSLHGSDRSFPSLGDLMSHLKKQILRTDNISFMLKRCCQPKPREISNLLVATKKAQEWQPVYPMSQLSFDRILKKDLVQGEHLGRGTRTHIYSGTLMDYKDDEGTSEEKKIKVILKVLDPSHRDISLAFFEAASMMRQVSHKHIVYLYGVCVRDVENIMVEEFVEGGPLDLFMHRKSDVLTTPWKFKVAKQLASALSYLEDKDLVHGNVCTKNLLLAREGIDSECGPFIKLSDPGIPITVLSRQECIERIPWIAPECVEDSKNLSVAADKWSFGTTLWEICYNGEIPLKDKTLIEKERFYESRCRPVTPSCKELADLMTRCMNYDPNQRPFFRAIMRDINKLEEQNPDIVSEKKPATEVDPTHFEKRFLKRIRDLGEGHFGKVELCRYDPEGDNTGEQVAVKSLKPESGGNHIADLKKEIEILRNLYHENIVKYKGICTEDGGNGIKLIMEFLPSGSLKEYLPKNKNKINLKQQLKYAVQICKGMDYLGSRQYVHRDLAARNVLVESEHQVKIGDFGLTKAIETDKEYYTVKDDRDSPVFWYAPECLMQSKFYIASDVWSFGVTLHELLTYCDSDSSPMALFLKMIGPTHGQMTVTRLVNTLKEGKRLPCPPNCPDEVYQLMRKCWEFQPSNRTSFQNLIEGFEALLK
Sequence of TYK2 (h) (P29597 whole entry): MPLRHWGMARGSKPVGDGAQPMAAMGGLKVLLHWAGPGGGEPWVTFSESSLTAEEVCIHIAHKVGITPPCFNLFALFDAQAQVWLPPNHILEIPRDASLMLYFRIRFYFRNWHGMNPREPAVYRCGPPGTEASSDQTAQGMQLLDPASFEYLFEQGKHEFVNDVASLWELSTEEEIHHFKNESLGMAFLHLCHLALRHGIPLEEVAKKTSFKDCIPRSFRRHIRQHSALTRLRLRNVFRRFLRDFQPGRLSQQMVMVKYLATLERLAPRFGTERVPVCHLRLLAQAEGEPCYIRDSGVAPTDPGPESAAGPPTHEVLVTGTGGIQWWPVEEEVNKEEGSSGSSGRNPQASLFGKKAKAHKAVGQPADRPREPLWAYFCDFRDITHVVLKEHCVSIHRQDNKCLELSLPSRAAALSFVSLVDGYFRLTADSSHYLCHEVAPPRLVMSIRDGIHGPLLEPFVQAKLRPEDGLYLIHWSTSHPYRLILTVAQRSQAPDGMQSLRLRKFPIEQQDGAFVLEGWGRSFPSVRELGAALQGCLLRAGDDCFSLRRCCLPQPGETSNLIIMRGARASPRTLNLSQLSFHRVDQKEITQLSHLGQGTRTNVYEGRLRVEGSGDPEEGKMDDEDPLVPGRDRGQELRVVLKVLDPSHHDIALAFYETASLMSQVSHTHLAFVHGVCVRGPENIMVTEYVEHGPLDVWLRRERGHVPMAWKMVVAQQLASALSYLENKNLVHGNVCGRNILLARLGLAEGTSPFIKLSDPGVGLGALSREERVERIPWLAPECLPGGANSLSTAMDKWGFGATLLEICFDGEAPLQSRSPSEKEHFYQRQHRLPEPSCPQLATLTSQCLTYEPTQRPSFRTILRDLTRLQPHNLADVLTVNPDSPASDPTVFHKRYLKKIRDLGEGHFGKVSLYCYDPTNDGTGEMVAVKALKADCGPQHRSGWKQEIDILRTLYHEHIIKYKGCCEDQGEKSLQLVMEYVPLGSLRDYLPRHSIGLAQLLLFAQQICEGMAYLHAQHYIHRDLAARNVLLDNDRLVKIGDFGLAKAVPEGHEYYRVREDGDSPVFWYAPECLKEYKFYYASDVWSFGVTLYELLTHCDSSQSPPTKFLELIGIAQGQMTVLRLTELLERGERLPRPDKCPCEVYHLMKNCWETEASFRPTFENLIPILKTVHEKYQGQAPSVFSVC

Row | Structure (SMILES) | IC50 (JAK1 (h)) [nM] | IC50 (JAK2 (h)) [nM] | IC50 (JAK3 (h)) [nM] | IC50 (TYK2 (h)) [nM] | other results
1 | O=C(Nc1nc2cccc(C3CCC(NC(=O)[C@@H]4CC4(F)F)CC3)n2n1)C1CC1 (single isomer, unassigned) [Compound 8-1] | 111 | 861 | > 10000 | 633 | –
2 | O=C(Nc1nc2cccc(C3CCC(NC(=O)[C@H]4CC4(F)F)CC3)n2n1)C1CC1 (single isomer, unassigned) [Compound 8-2] | 2 | – | 957 | 24 | inhibition rate relative to the vehicle control group (foot volume curve AUC) ([1]; 5 mg/kg p.o. bid 14 d): 38.0%; average foot volume of arthritis rat ([1]; 5 mg/kg p.o. bid 14 d, end of the experiment (27th day)): 1.4 mL; inhibition rate relative to the vehicle control group (foot volume curve AUC) ([1]; 15 mg/kg p.o. bid 14 d): 44.5%; average foot volume of arthritis rat [1, 3]: 1.1 mL; clinical score of arthritis rats ([1]; 5 mpk p.o. bid 14 d, end of the experiment (27th day), vehicle peak about 8.5): 2.7; clinical score of arthritis rats [1, 4]: 1.0; body weight of arthritis rats ([1]; dose groups 5 and 15 mg/kg p.o. bid, weight decreased from the 15th to the 17th day): began to recover slowly on the 19th day
3 | O=C(Nc1nc2cccc(C3CCC(NC(=O)[C@@H]4CC4(F)F)CC3)n2n1)C1CC1 (single isomer, unassigned) [Compound 8-3] | 494 | 5770 | > 10000 | 3440 | –
4 | O=C(Nc1nc2cccc(C3CCC(NC(=O)[C@H]4CC4(F)F)CC3)n2n1)C1CC1 (single isomer, unassigned) [Compound 8-4] | 442 | 3750 | > 10000 | 2440 | –
5 | O=C(Nc1nc2cccc(C3=CCC(NC(=O)C4CC4(F)F)CC3)n2n1)C1CC1 (centres unmarked) [Compound 1-7] | – | 239 | 3110 | 73 | Bioavailability [2]: 75.2%; AUC0-inf [2, 5]: 18.033 µM·h; T1/2 (half-life) [2, 5]: 2.07 h; Cmax [2, 5]: 23.9 µM
6 | O=C(Nc1nc2cccc(C3=CCC(NC(=O)C4CC4)CC3)n2n1)C1CC1 (centres unmarked) [Compound 1-12] | 149 | 1420 | > 10000 | 497 | –
7 | O=C(Nc1nc2cccc(C3=CC[C@@H](NC(=O)[C@@H]4CC4(F)F)CC3)n2n1)C1CC1 [Compound 3-1] | – | 141 | 5520 | 78 | Bioavailability [2]: 30.0%; AUC0-inf [2, 5]: 19.967 µM·h; T1/2 (half-life) [2, 5]: 3.11 h; Cmax [2, 5]: 3.8 µM
8 | O=C(Nc1nc2cccc(C3=CC[C@@H](NC(=O)[C@H]4CC4(F)F)CC3)n2n1)C1CC1 [Compound 3-2] | 163 | – | – | 1370 | –
9 | O=C(Nc1nc2cccc(C3=CC[C@H](NC(=O)[C@@H]4CC4(F)F)CC3)n2n1)C1CC1 [Compound 3-3] | 166 | – | – | 942 | –
10 | O=C(Nc1nc2cccc(C3=CC[C@H](NC(=O)[C@H]4CC4(F)F)CC3)n2n1)C1CC1 [Compound 3-4] | 17 | 126 | 2550 | 71 | –
11 | O=C(Nc1nc2cccc(C3CCC(NC(=O)C4CC4(F)F)CC3)n2n1)C1CC1 (centres unmarked) [Compound 4-2] | – | – | 2050 | 10 | Bioavailability [2]: 58.6%; AUC0-inf [2, 5]: 11.021 µM·h; T1/2 (half-life) [2, 5]: 2.22 h; Cmax [2, 5]: 13.4 µM
12 | O=C(Nc1nc2cccc(C3CCC(NC(=O)C4(F)CC4)CC3)n2n1)C1CC1 (centres unmarked) [Compound 4-3] | 31 | 360 | 4380 | 127 | Bioavailability ([2]; blood, po, read-out: Bioavailability): 89.8%; AUC0-inf ([2]; blood, po, tail vein and gavage groups, route of the parameter and dose not given, read-out: AUC0-inf): 85.8 µM·h; Cmax ([2]; blood, po, tail vein and gavage groups, route of the parameter and dose not given): 24.8 µM; half-life ([2]; blood, po, tail vein and gavage groups, route of the parameter and dose not given, read-out: T1/2 (half-life) (converted)): 2.86 h; average foot volume of arthritis rat [1, 3]: 1.5 mL; clinical score of arthritis rats [1, 4]: 2.6; inhibition at 15 mg/kg ([1]; Rattus norvegicus, po, 336 h, 15 mg/kg p.o. bid 14 d, read-out: inhibition rate relative to the vehicle control group (foot volume curve AUC)): 32.3%
13 | O=C(Nc1nc2cccc(C3=CCN(C(=O)C4CC4)CC3)n2n1)C1CC1 [Compound 5-4] | 90 | 422 | > 10000 | 178 | –
14 | O=C(Nc1nc2cccc(C3=CCN(C(=O)C4CC4(F)F)C3)n2n1)C1CC1 (centres unmarked) [Compound 6-1] | 70 | – | > 10000 | 244 | –
15 | O=C(Nc1nc2cccc(C3=CCN(C(=O)C4(F)CC4)C3)n2n1)C1CC1 [Compound 6-2] | 531 | 1120 | > 10000 | 2870 | –
16 | O=C(Nc1nc2nccc(C3CCC(NC(=O)C4CC4(F)F)CC3)c2s1)C1CC1 (centres unmarked) [Compound 10-9] | 2290 | > 10000 | > 10000 | 245 | –
17 | C[C@@H]1C[C@H]2[C@@H]3CCC4=CC(=O)C=C[C@]4(C)[C@@]3(F)[C@@H](O)C[C@]2(C)[C@@]1(O)C(=O)CO [Dexamethasone, reference compound] | – | – | – | – | inhibition rate relative to the vehicle control group (foot volume curve AUC) ([1]; 0.3 mg/kg p.o. qd 14 d): 44.9%; average foot volume of arthritis rat ([1]; 0.3 mg/kg p.o. qd 14 d, end of the experiment): 1.1 mL; clinical score of arthritis rats ([1]; 0.3 mg/kg p.o. qd 14 d, from the 23rd day until the end of the experiment): about 2.0
